Experimental data as given in paper PMC10504751, “Chalcone/1,3,4-Oxadiazole/Benzimidazole hybrids as novel anti-proliferative agents inducing apoptosis and inhibiting EGFR & BRAFV^600E” (BMC Chemistry, 2023).

Tests used:
Assay in all cases: NCI one-dose SRB anti-proliferative screen
Type in all cases: cell-based
NCI-H23 = conditions: Homo sapiens; NCI-H23, Non-Small Cell Lung Cancer; NCI one dose; read-out: Cell growth inhibition %
Outline: (§1)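 Sulforhodamine B colorimetric read-out of growth inhibition across the NCI 60-cell-line, nine-subpanel screen. Each compound was given at one 10 µM dose.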

PC-3 = conditions: Homo sapiens; PC-3, Prostate Cancer; NCI one dose; read-out: Cell growth inhibition %
Outline: as §1

SW-620 = conditions: Homo sapiens; SW-620, Colon cancer; NCI one dose; read-out: Cell growth inhibition %
Outline: as §1

OVCAR-4 = conditions: Homo sapiens; OVCAR-4, Ovarian Cancer; NCI one dose; read-out: Cell growth inhibition %
Outline: as §1

IGROV1 = conditions: Homo sapiens, IGROV-1; IGROV1, Ovarian Cancer; NCI one dose; read-out: Cell growth inhibition %
Outline: as §1

HCT-15 = conditions: Homo sapiens; HCT-15, Colon cancer; NCI one dose; read-out: Cell growth inhibition %
Outline: as §1

MCF7 = conditions: Homo sapiens; MCF7, Breast cancer; NCI one dose; read-out: Cell growth inhibition %
Outline: as §1

OVCAR-8 = conditions: Homo sapiens; OVCAR-8, Ovarian Cancer; NCI one dose; read-out: Cell growth inhibition %
Outline: as §1

NCI-H226 = conditions: Homo sapiens; NCI-H226, Non-Small Cell Lung Cancer; NCI one dose; read-out: Cell growth inhibition %
Outline: as §1

HS 578T = conditions: Homo sapiens; HS 578T, Breast cancer; NCI one dose; read-out: Cell growth inhibition %
Outline: as §1

OVCAR-5 = conditions: Homo sapiens; OVCAR-5, Ovarian Cancer; NCI one dose; read-out: Cell growth inhibition %
Outline: as §1

BT-549 = conditions: Homo sapiens; BT-549, Breast cancer; NCI one dose; read-out: Cell growth inhibition %
Outline: as §1

CCRF-CEM = conditions: Homo sapiens; CCRF-CEM, Leukemia; NCI one dose; read-out: Cell growth inhibition %
Outline: as §1

SF-295 = conditions: Homo sapiens; SF-295, CNS Cancer; NCI one dose; read-out: Cell growth inhibition %
Outline: as §1

RPMI-8226 = conditions: Homo sapiens; RPMI-8226, Leukemia; NCI one dose; read-out: Cell growth inhibition %
Outline: as §1

SK-MEL-2 = conditions: Homo sapiens; SK-MEL-2, Melanoma; NCI one dose; read-out: Cell growth inhibition %
Outline: as §1

KM12 = conditions: Homo sapiens; KM12, Colon cancer; NCI one dose; read-out: Cell growth inhibition %
Outline: as §1

LOX IMVI = conditions: Homo sapiens
Outline: as §1

UO-31 = conditions: Homo sapiens; UO-31, Renal cancer; NCI one dose; read-out: Cell growth inhibition %
Outline: as §1

NCI-H460 = conditions: Homo sapiens; NCI-H460, Non-Small Cell Lung Cancer; NCI one dose; read-out: Cell growth inhibition %
Outline: as §1

HT29 = conditions: Homo sapiens, HT-29; HT29, Colon cancer; NCI one dose; read-out: Cell growth inhibition %
Outline: as §1

SK-OV-3 = conditions: Homo sapiens; SK-OV-3, Ovarian Cancer; NCI one dose; read-out: Cell growth inhibition %
Outline: as §1

DU-145 = conditions: Homo sapiens; DU-145, Prostate Cancer; NCI one dose; read-out: Cell growth inhibition %
Outline: as §1

U251 = conditions: Homo sapiens, U-251; U251, CNS Cancer; NCI one dose; read-out: Cell growth inhibition %
Outline: as §1

ACHN = conditions: Homo sapiens; ACHN, Renal cancer; NCI one dose; read-out: Cell growth inhibition %
Outline: as §1

SN12C = conditions: Homo sapiens, SN 12C, Renal cancer, NCI one dose, read-out: Cell growth inhibition %
Outline: as §1

UACC-257 = conditions: Homo sapiens; UACC-257, Melanoma; NCI one dose; read-out: Cell growth inhibition %
Outline: as §1

786-0 = conditions: Homo sapiens; 786-0, Renal cancer; NCI one dose; read-out: Cell growth inhibition %
Outline: as §1

OVCAR-3 = conditions: Homo sapiens; OVCAR-3, Ovarian Cancer; NCI one dose; read-out: Cell growth inhibition %
Outline: as §1

CAKI-1 = conditions: Homo sapiens; CAKI-1, Renal cancer; NCI one dose; read-out: Cell growth inhibition %
Outline: as §1

SR = conditions: Homo sapiens; SR, Leukemia; NCI one dose; read-out: Cell growth inhibition %
Outline: as §1

MDA-MB-468 = conditions: Homo sapiens; MDA-MB-468, Breast cancer; NCI one dose; read-out: Cell growth inhibition %
Outline: as §1

How did the inhibition at 10 µM (NCI-H23) turn out when COc1cc(/C=C/C(=O)c2ccc(NC(=O)CSc3nnc(-c4ccc5[nH]c(-c6ccccc6)nc5c4)o3)cc2)cc(OC)c1OC [Compound 7e, 2-{5-[2-Phenyl-1 H-benzo[d]imidazol-5-yl]-1,3,4-oxadiazol-2-ylthio}-N-{4-[(E)-3-(3,4,5-trimethoxyphenyl)acryloyl]phenyl}acetamide] was run?
The inhibition at 10 µM was 7.28%.

And the inhibition at 10 µM (PC-3)?
The inhibition at 10 µM was 1.05%.

What about the inhibition at 10 µM (SW-620) of the same compound?
Its inhibition at 10 µM is 1.21%.

What about the inhibition at 10 µM (OVCAR-4) of the same compound?
Its inhibition at 10 µM is 0.46%.

And the inhibition at 10 µM (IGROV1)?
Its inhibition at 10 µM is 2.76%.

What about the inhibition at 10 µM (HCT-15) of the same compound?
The inhibition at 10 µM was 12.4%.

And the inhibition at 10 µM (MCF7)?
The inhibition at 10 µM was 56.1%.

And the inhibition at 10 µM (OVCAR-8)?
The inhibition at 10 µM was 2.93%.

What about the inhibition at 10 µM (NCI-H226) of the same compound?
The inhibition at 10 µM was 0.66%.

And the inhibition at 10 µM (HS 578T)?
The inhibition at 10 µM was 14.5%.

What about the inhibition at 10 µM (OVCAR-5) of the same compound?
The inhibition at 10 µM was 0%.

And the inhibition at 10 µM (BT-549)?
The inhibition at 10 µM was 18.4%.

What about the inhibition at 10 µM (CCRF-CEM) of the same compound?
The inhibition at 10 µM was 62.5%.

And the inhibition at 10 µM (SF-295)?
The inhibition at 10 µM was 0%.

What about the inhibition at 10 µM (RPMI-8226) of the same compound?
The inhibition at 10 µM was 69.3%.

And the inhibition at 10 µM (SK-MEL-2)?
The inhibition at 10 µM was 0%.

What about the inhibition at 10 µM (KM12) of the same compound?
The inhibition at 10 µM was 10%.

What about the activity at 10 µM (LOX IMVI; LOX IMVI (Melanoma), 10 µM one dose, read-out: Growth Percent) of the same compound?
Its activity at 10 µM is 56%.

What about the inhibition at 10 µM (LOX IMVI; Melanoma, NCI one dose, read-out: Cell growth inhibition %) of the same compound?
The inhibition at 10 µM was 44%.

And the inhibition at 10 µM (UO-31)?
Its inhibition at 10 µM is 10.6%.

What about the inhibition at 10 µM (NCI-H460) of the same compound?
The inhibition at 10 µM was 7.53%.

What about the inhibition at 10 µM (HT29) of the same compound?
The inhibition at 10 µM was 0%.

And the inhibition at 10 µM (SK-OV-3)?
Its inhibition at 10 µM is 0%.

What about the inhibition at 10 µM (DU-145) of the same compound?
The inhibition at 10 µM was 9.02%.

And the inhibition at 10 µM (U251)?
The inhibition at 10 µM was 19.4%.

And the inhibition at 10 µM (ACHN)?
Its inhibition at 10 µM is 0%.

And the inhibition at 10 µM (SN12C)?
The inhibition at 10 µM was 9.21%.

And the inhibition at 10 µM (UACC-257)?
Its inhibition at 10 µM is 12.4%.

And the inhibition at 10 µM (786-0)?
Its inhibition at 10 µM is 24.6%.

What about the inhibition at 10 µM (OVCAR-3) of the same compound?
The inhibition at 10 µM was 27.9%.

What about the inhibition at 10 µM (CAKI-1) of the same compound?
The inhibition at 10 µM was 0%.

And the inhibition at 10 µM (SR)?
The inhibition at 10 µM was 63.2%.

What about the inhibition at 10 µM (MDA-MB-468) of the same compound?
The inhibition at 10 µM was 5.09%.
